Data: patent US9487749B2 (priority 2009, dated 2016)
Several values for one entry are separate records, joined by “and”; a condition that tells them apart may be missing. Equal entries are not always repeated.

Assays:
Type in all cases: cell-based
Aspergillus niger [1] = experiment: USP Antimicrobial Effectiveness Test (AET) of MSM supplemented TSB; design: key to AET test results (microorganism count): Colonies too numerous to count (TNTC); settings: for Log Reduction from Initial Microorganism Inoculum: 1:10 dilution of MSM, 14 Days, 28 Days; for AET test results (microorganism count): 48 hrs
Excerpt: (§1) Compounds or formulated products having antimicrobial activity may be evaluated with the United States Pharmacopeia (USP) Antimicrobial Effectiveness Test (AET). The AET involves the addition of specified microorganisms (Candida albicans, Aspergillus niger, Escherichia coli, Pseudomonas aeruginosa and Staphylococcus aureus) directly to a test product at relatively high concentrations to simulate contamination. The product is held for one month, with weekly analysis of microorganism levels. […] For yeast and mold, no increase from the initial inoculums level is permitted. […] Inoculations were made using Candida albicans, Aspergillus niger, Escherichia coli, Pseudomonas aeruginosa and Staphylococcus aureus. Tryptic soy broth (TSB) was used as the culturing media. […] The inoculated media was held for one month, during which time the added microorganisms were enumerated weekly to determine if they were growing, dying off, or remaining near the initial inoculation level. […] The acceptance criteria for antimicrobial effectiveness are described in detail in the USP, herein incorporated by reference.

Candida albicans [2] = experiment: as above; design: key to AET test results (microorganism count): Colonies too numerous to count (TNTC); settings: for Log Reduction from Initial Microorganism Inoculum: 1:10 dilution of MSM, 14 Days, 28 Days; for AET test results (microorganism count): 48 hrs
Excerpt: as §1

Staphylococcus aureus [3] = experiment: as above; design: key to AET test results (microorganism count): Colonies too numerous to count (TNTC); settings: for Log Reduction from Initial Microorganism Inoculum: 1:10 dilution of MSM, 14 Days, 28 Days; for AET test results (microorganism count): 48 hrs
Excerpt: as §1

Aspergillus niger [4] = experiment: USP <51> AET in cosmetic cream / cosmetic compositions, 28 days; settings: 10% MSM in cosmetic cream without preservative, 48 hrs-28 days
Excerpt: (§2) The cosmetic cream matrix into which the MSM was incorporated was preservative free. An additional cream, with a preservative, was also spiked with E. coli and evaluated.

Candida albicans [5] = experiment: as above; settings: for Microbial growth (count): 48 hrs-28 days; for Log Reduction from Initial Microorganism Inoculum: 14 Days, 28 Days
Excerpt: as §2

Staphylococcus aureus [6] = experiment: as above; settings: for Log Reduction from Initial Microorganism Inoculum: 14 Days, 28 Days
Excerpt: as §2

Bacillus coagulans = Bacillus coagulans growth in simulated gastric acid supplemented with MSM; settings: simulated gastric acid pH 1.2
[7] = system: Lactobacillus acidophilus; experiment: Growth of Lactobacillus acidophilus in Acidophilus milk fortified with MSM
Excerpt: 31, 2013. […] The Acidophilus milk was low fat (Darigold).

[8] = 10% MSM in preservative-free jojoba cosmetic cream
[9] = 10% MSM, Preservative Free Cosmetic Composition #1
[10] = 10% MSM, Preservative Free Cosmetic Composition #2
[11] = acidophilus milk, 0.50% MSM, Day 21

CS(C)(=O)=O [MSM, Methylsulfonylmethane]
Log Reduction from Initial Microorganism Inoculum (Aspergillus niger [1]; after 14 days): 4.3 log
Log Reduction from Initial Microorganism Inoculum (Aspergillus niger [1]; after 28 days): 4.5 log
AET test results (microorganism count) (Aspergillus niger [1]; 1:100 dilution of MSM in TSB): TNTC*
AET test results (microorganism count) (Aspergillus niger [1]; 1:1000 dilution of MSM in TSB): TNTC*
Log Reduction from Initial Microorganism Inoculum (Candida albicans [2]; after 14 days): 4.2 log
Log Reduction from Initial Microorganism Inoculum (Candida albicans [2]; after 28 days): 4.4 log
AET test results (microorganism count) (Candida albicans [2]; 1:100 dilution of MSM in TSB): TNTC
AET test results (microorganism count) (Candida albicans [2]; 1:1000 dilution of MSM in TSB): TNTC
Log Reduction from Initial Microorganism Inoculum (Staphylococcus aureus [3]; after 14 days): 4.5 log
Log Reduction from Initial Microorganism Inoculum (Staphylococcus aureus [3]; after 28 days): 4.7 log
AET test results (microorganism count) (Staphylococcus aureus [3]; 1:100 dilution of MSM in TSB): TNTC
AET test results (microorganism count) (Staphylococcus aureus [3]; 1:1000 dilution of MSM in TSB): TNTC
Microbial growth (count) (Aspergillus niger [4]; 48 hours after inoculation): 8 × 10^3
Microbial growth (count) (Aspergillus niger [4]; 14 days after inoculation): 6 × 10^3
Microbial growth (count) (Aspergillus niger [4]; 28 days after inoculation): 5 × 10^2
Microbial growth (count) (Candida albicans [5]; 10% MSM in Preservative Free Cosmetic Composition #2, after 48 hours incubation): 9.0 × 10^2
Microbial growth (count) (Candida albicans [5]; 10% MSM in Preservative Free Cosmetic Composition #2, after 7 days incubation): <10
Microbial growth (count) (Candida albicans [5]; 10% MSM in cosmetic cream without preservative): <10
Log Reduction from Initial Microorganism Inoculum (Candida albicans [5]; [8]): 4.3 log
Log Reduction from Initial Microorganism Inoculum (Candida albicans [5]; [9]): 5.3 log
Log Reduction from Initial Microorganism Inoculum (Candida albicans [5]; [10]): 5.3 log
Microbial growth (count) (Staphylococcus aureus [6]; 10% MSM in cosmetic cream without preservative, 48 hrs-28 days): <10
Log Reduction from Initial Microorganism Inoculum (Staphylococcus aureus [6]; [8]): 5.6 log
Log Reduction from Initial Microorganism Inoculum (Staphylococcus aureus [6]; [9]): 5.7 log
Log Reduction from Initial Microorganism Inoculum (Staphylococcus aureus [6]; [10]): 5.7 log
Log Growth of Bacillus coagulans average (Bacillus coagulans; 5% MSM, hour 0): 0.26 log
Log Growth of Bacillus coagulans in duplicate (Bacillus coagulans; 5% MSM, hour 3): 0 log
Log Growth of Bacillus coagulans average (Bacillus coagulans; 5% MSM, hour 3): 0 log
Log Growth of Bacillus coagulans in duplicate (Bacillus coagulans; 5% MSM, hour 6): 0 log
Log Growth of Bacillus coagulans average (Bacillus coagulans; 5% MSM, hour 6): 0 log
Log Growth of Bacillus coagulans in duplicate (Bacillus coagulans; 5% MSM, hour 9): 0 log
Log Growth of Bacillus coagulans average (Bacillus coagulans; 5% MSM, hour 9): 0 log
Log Growth of Bacillus coagulans in duplicate (Bacillus coagulans; 5% MSM, hour 12): 0 log
Log Growth of Bacillus coagulans average (Bacillus coagulans; 5% MSM, hour 12): 0 log
Log Growth of Bacillus coagulans average (Bacillus coagulans; 5% MSM, hour 15): 0.26 log
Log Growth of Bacillus coagulans in duplicate (Bacillus coagulans; 5% MSM, hour 24): 0 log
Log Growth of Bacillus coagulans average (Bacillus coagulans; 5% MSM, hour 24): 0 log
Log Growth of Bacillus coagulans in duplicate (Bacillus coagulans; 5% MSM, hour 48): 0 log
Log Growth of Bacillus coagulans average (Bacillus coagulans; 5% MSM, hour 48): 0 log
Log Growth of Bacillus coagulans in duplicate (Bacillus coagulans; […] MSM, hour 0): 0 log
Log Growth of Bacillus coagulans in duplicate (Bacillus coagulans; […] MSM, hour 3): 0 log
Log Growth of Bacillus coagulans in duplicate (Bacillus coagulans; […] MSM, hour 9): 0 log
Log Growth of Bacillus coagulans average (Bacillus coagulans; […] MSM, hour 9): 0 log
Log Growth of Bacillus coagulans in duplicate (Bacillus coagulans; […] MSM, hour 12): 0 log
Log Growth of Bacillus coagulans in duplicate (Bacillus coagulans; […] MSM, hour 15): 0 log
Log Growth of Bacillus coagulans average (Bacillus coagulans; […] MSM, hour 15): 0 log
Log Growth of Bacillus coagulans in duplicate (Bacillus coagulans; […] MSM, hour 24): 0 log
Log Growth of Bacillus coagulans average (Bacillus coagulans; […] MSM, hour 24): 0 log
Log Growth of Bacillus coagulans in duplicate (Bacillus coagulans; […] MSM, hour 48): 0 log
Log Growth of Bacillus coagulans average (Bacillus coagulans; […] MSM, hour 48): 0 log
peak growth ([7]; 0.5% MSM): 10.72 logs
log growth lower than control ([7]; 0.5% MSM, listed as order: Day 14, Day 28): 0.74 logs and 1.00 logs
peak growth ([7]; 5.0% MSM): 10.89 log
log increase in growth within the first 8 hours (duplicates) ([7]; […] MSM): 2.27 logs
peak growth ([7]; […] MSM): 10.59 logs
log growth lower than control ([7]; […] MSM, Day 28): 0.68 logs
Growth of Lactobacillus acidophilus in Milk fortified with MSM average ([7]; acidophilus milk, 0.50% MSM, Day 7): 10.68 log
Growth of Lactobacillus acidophilus in Milk fortified with MSM average ([7]; acidophilus milk, 0.50% MSM, Day 14): 6.22 log
Log Growth of Lactobacillus acidophilus in Milk fortified with MSM [7, 11]: 5.37 log
Growth of Lactobacillus acidophilus in Milk fortified with MSM average [7, 11]: 5.37 log
Growth of Lactobacillus acidophilus in Milk fortified with MSM average ([7]; acidophilus milk, 0.50% MSM, Day 28): 3.00 log
